Data set [1] deals with Rat primary neurons. Kind of data set: KCl membrane depolarization of neurons expressing RGEDI-P2A-EGFP. Particulars: 10 mM KCl (FIG. 21D). The class given is cell-based. Here is the method: FIG. 21A depicts representative images of individual neurons over the time course. […] Next, the RGEDI intensity was plotted as a percentage increase from baseline (t=0) (ie delta RGEDI/baseline RGEDI). Using the morphology as a readout, the time of death was determined for each neuron. […] FIG. 21D.

The test system of data set [2] is motor neurons of zebrafish larvae. Put plainly: Targeted neuronal ablation with MTZ in nitroreductase-expressing zebrafish. The format is in vivo. Here is the method:
Briefly, zebrafish embryos were co-injected at 1-cell stage with mnx1:Gal4, UAS:GCaMP6f, and UAS:Nitroreductase-mCherry. Embryos were grown at 28.5° C. until 48 hours post fertilization (hpf), anaesthetized in tricaine, embedded in low-melting point agarose, and then imaged on a spinning disk confocal microscope. Images were acquired of the same motor neurons within the zebrafish at 0, 24 hours, and 48 hours after MTZ or DMSO was added to the media. Intensity of GCaMP6f was plotted as the change in fluorescence intensity from time point 0.
The GEDI reporter was also tested in skeletal muscle fiber. FIG. 13C. […] FIGS. 14A, 14B, and 22.

The test system of data set [3] is Rat primary neurons. Kind of data set: RGEDI/EGFP ratio after NaN3-induced acute death of neurons. The format is cell-based. Here is the method:
ANOVA Tukey's ***p<0.001, ns=not significant.
Rat primary neurons were transfected with hsyn1:RGEDI-P2A-EGFP as described above and imaged at DIV10. […] A non-linear regression was fit to the NaN3+Ca^2+ time course and a half-life of RGEDI/EGFP signal increase was determined to be 5 minutes and 50 seconds. […] ANOVA Tukey comparison to 0 minutes of each condition, *** p<0.001, **** p<0.0001. […] FIG. 3.

Data set [4] concerns rat primary cortical neurons. Kind of data set: Glutamate exposure of neurons expressing RGEDI, survival by GEDI ratio. The format is cell-based. Particulars: within three hours of glutamate exposure. An excerpt: Briefly, neurons expressing RGEDI were exposed to the neurotransmitter glutamate. […] Furthermore, features of neurons such as neurite area were identified as associated with neurons that are resistant to high Glutamate exposure. These studies indicate that GEDIs can be used for screening for drug resistant or drug sensitive cells and identifying physiological characteristics of those cells that may underlie their sensitivity or resistance.

Data set [5] deals with rat primary cortical neurons. Put plainly: Toxicity of neurodegenerative disease proteins in neurons, cumulative hazard from GEDI ratio. The class given is cell-based. Particulars: automated GEDI ratio, 8 time points. Here is the method:
Rat primary cortical neuron cultures were prepared from embryos (embryonic day 16-18) and co-transfected using Lipofectamine2000 (ThermoFisher Scientific, Carlsbad, Calif., USA) with 150 ng/well of hSyn1:mRuby-P2a-GCaMP (Addgene #50943) and either Htt^ex1-Q27 or Htt^ex1-Q97 (known to induce neurodegeneration) in a 96-well format. […] FIG. 17A. The GCaMP intensity was detected and plotted as a percentage increase from baseline (t=0) (i.e., delta GCaMP/baseline GCaMP). Using the morphology as a readout, the time of death was determined for each neuron.
To examine the changes in signal increase as a cell dies, rat primary cortical neurons expressing GCaMP6f, mRuby, and HttEx1-Q97 were examined overtime. […] Using time lapse imaging, it was observed that 0 out of 94,106 dead rat primary cortical neurons examined regenerated after elevated GEDI signal, indicating elevated GEDI signal is terminal. In addition, the ratio of GCaMP6f/mRuby signal from rat primary cortical neurons expressing HttEx1-Q97 and HttEx1-Q25 at 0, 24, 48, 72, 96, and 120 hours post transfection was determined. FIG. 1B, the horizontal line at 0.75 separates dead from live neurons. […] Similarly, human motor neurons differentiated from induced pluripotent stem cells were transfected with […] hSyn1:mRuby-P2a-GCaMP and imaged with robotic microscopy every 6 hours up to 12 hours. […]

In the case of `[Cl-].[K+]` [KCl], the “excitation of RGEDI-P2A-EGFP signal” value in the data set with Rat primary neurons [1] is listed as “failed to excite”. `Cc1ncc([N+](=O)[O-])n1CCO` [MTZ, metronidazole]: the GCaMP expression entry in data set [2] (24 and 48 hours after addition, zebrafish larvae motor neurons, NTR-mCherry) was “increased”. In addition, the RGEDI-P2a-3XtagBFP signal result in data set [2] (zebrafish neurons co-expressing NTR-mVenus, versus DMSO) is reported as “signal increased”. With `[N-]=[N+]=[N-].[Na+]` [NaN3], the RGEDI/EGFP ratio result in the data set on Rat primary neurons [3] (2% NaN3 in NBM with ~2 mM Ca^2+, compared to saline) is on record as “significantly increased”; in the data set on Rat primary neurons [3] (NaN3, neurons washed 3x and incubated in Ca2+ free PBS), “did not show a significant increase”. Regarding `N[C@@H](CCC(=O)O)C(=O)O` [glutamate], in data set [4], the neuronal death entry is given as “killed many of the cells”. Turning to “TDP43: neurodegenerative disease protein transfected into neurons”, in data set [5], the “toxicity over time compared to control (cumulative hazard)” value is reported as “increased toxicity”.

As to α-synuclein, the “toxicity over time compared to control (cumulative hazard)” value in data set [5] was “increased toxicity”.

The values are drawn from US20190242876A1, “GENETICALLY ENCODED CELL DEATH INDICATORS AND METHODS OF USE” (The J. David Gladstone Institutes, A Testamentary Trust …, priority 2016, published 2019).
